Experimental findings from patent US11524966B1 (Valo Early Discovery, Inc., priority 2017, dated 2022) are described below.

The experiment has as its target T1, USP25 (USP25-His6, Boston Biochem E-546) (Homo sapiens, UniProt Q9UHP3).
T1 construct: His6; purchased Boston Biochem E-546
T1 sequence (Q9UHP3 1-1055): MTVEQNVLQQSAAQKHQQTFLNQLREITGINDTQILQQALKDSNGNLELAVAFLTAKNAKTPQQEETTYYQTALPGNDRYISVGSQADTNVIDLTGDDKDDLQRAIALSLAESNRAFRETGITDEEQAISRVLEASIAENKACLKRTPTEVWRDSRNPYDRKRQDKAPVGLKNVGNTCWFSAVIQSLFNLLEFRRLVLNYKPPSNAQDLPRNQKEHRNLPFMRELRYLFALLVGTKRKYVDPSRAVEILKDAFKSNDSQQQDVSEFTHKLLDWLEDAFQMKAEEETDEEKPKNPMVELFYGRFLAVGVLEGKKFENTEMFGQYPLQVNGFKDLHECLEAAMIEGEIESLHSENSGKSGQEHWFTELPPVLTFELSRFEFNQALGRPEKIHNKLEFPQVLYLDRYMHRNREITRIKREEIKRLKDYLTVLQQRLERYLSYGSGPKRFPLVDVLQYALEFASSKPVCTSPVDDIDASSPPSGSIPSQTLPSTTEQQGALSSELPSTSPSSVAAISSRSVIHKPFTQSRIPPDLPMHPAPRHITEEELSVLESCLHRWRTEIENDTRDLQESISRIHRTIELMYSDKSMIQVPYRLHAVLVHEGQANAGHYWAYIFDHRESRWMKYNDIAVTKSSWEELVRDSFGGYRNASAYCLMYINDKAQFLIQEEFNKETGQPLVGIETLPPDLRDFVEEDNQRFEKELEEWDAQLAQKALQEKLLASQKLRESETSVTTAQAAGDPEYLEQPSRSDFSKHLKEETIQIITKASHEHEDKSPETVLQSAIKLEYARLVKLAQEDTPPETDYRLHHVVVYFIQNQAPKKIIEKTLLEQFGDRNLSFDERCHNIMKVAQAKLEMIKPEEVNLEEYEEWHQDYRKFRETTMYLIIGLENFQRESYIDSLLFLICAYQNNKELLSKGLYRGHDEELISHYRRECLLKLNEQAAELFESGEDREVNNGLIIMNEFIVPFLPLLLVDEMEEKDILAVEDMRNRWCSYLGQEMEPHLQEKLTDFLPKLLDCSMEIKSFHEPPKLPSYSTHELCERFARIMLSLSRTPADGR
Nature of the experiment: Ubiquitin-Rhodamine 110 Assay for USP25 Activity, Example A-2. It counts as biochemical. The note with it: Ubiquitin-Rhodamine 110 assay, Example A-2; read-out: USP25 A-2 IC50 range. In a few lines:
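Steps: compound dilutions (top 25 μM, 3-fold, 10 points) were preincubated 30 min with 75 pM USP25-His6; 25 nM Ub-Rh110 substrate was added under initial-velocity conditions; after 45 min at room temperature, 10 mM citric acid stopped the reaction before fluorescence reading.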
Regarding `Cc1ccc2c(N)c(C(=O)N[C@H]3COc4cc(N5C[C@H](N)C6(COC6)C5)ccc4C3)sc2n1` [Example 258, 3-amino-N-[(3R)-7-[(8R)-8-amino-2-oxa-6-azaspiro[3.4]octan-6-yl]-3,4-dihydro-2H-1-benzopyran-3-yl]-6-methylthieno[2,3-b]pyridine-2-carboxamide], the IC50 fell in the range of 200 to 2000 nM. Regarding `Cc1ccc2c(N)c(C(=O)N[C@H]3COc4cc(N5CC[C@@H]6CC[C@H](N)C[C@@H]65)ccc4C3)sc2n1` [Example 234, N-[(3R)-7-[(3aS,6S,7aS)-6-amino-octahydro-1H-indol-1-yl]-3,4-dihydro-2H-1-benzopyran-3-yl]-3-amino-6-methylthieno[2,3-b]pyridine-2-carboxamide], the IC50 was in the range of 50 to 200 nM. As for `Cc1ccc2c(N)c(C(=O)N[C@H]3COc4cc(N5C[C@@H](N)C6(COC6)C5)ccc4C3)sc2n1` [Example 259, 3-amino-N-[(3R)-7-[(8S)-8-amino-2-oxa-6-azaspiro[3.4]octan-6-yl]-3,4-dihydro-2H-1-benzopyran-3-yl]-6-methylthieno[2,3-b]pyridine-2-carboxamide], the IC50 was 200 to 2000 nM. `O=C(N[C@H]1CCc2cc(N3CC4CCC(C3)N4)cc(F)c2C1)c1cnc2c(c1)[C@@H]1C[C@@H]1CN2` [Example 191, (6aS,7aR)-N-[(2S)-6-{3,8-diazabicyclo[3.2.1]octan-3-yl}-8-fluoro-1,2,3,4-tetrahydronaphthalen-2-yl]-5H,6H,6aH,7H,7aH-cyclopropa[c]1,8-naphthyridine-2-carboxamide]: the IC50 was greater than 2000 nM. In the case of `Cc1ccc2c(N)c(C(=O)N[C@H]3COc4cc(N5CC[C@@H]6CCNC[C@@H]65)ccc4C3)sc2n1` [Example 225], the IC50 lay within 1 to 50 nM. Take `Cc1ccc2c(N)c(C(=O)N[C@H]3CCc4nc(N5CC[C@@H]6CNC[C@@H]65)ccc4C3)sc2n1` [Example 217, N-[(6S)-2-[(3aR,6aR)-octahydropyrrolo[2,3-c]pyrrol-1-yl]-5,6,7,8-tetrahydroquinolin-6-yl]-3-amino-6-methylthieno[2,3-b]pyridine-2-carboxamide]: the IC50 lay within 50 to 200 nM. With `Cc1ccc2c(N)c(C(=O)N[C@H]3Cc4ccc(N5CCNCC5)nc4[C@H](C)C3)sc2n1` [Example 208, 3-amino-6-methyl-N-[(6R,8R)-8-methyl-2-(piperazin-1-yl)-5,6,7,8-tetrahydroquinolin-6-yl]thieno[2,3-b]pyridine-2-carboxamide], the IC50 is 200 to 2000 nM.

By IC50 is commonly meant the concentration that gives 50% inhibition.
